Reference: a melting point compilation (Tetko et al.; mined from patent text by program, amines drawn as free bases though some values may be those of a salt)

Row | Structure (SMILES) | melting point [°C]
1 | CC(=O)OC1CSC(Oc2cncc(-c3ccncc3C)c2)C(OC(C)=O)C1OC(C)=O (centres undefined) | 153 to 174
2 | CC(NC(=O)C1(Cl)C(C)(C)C1(Cl)Cl)c1ccc(Cl)cc1 (centres undefined) | 138 to 139
3 | CCCCCCCCCCS(=O)(=O)CCCOCCn1c(CCC)nc2c(N)nc3ccccc3c21 | 84 to 86
4 | CN[C@H]1CCN(c2c(F)cc3c(=O)n(NC)c(=O)n(C4CC4)c3c2Cl)C1 | 77 to 79
5 | CCOc1nc(C(F)(F)F)cc(=O)n1-c1cc(OC(C)C)c(Br)cc1F | 106 to 108
6 | CC(C)S(=O)(=O)NC(=O)c1cccc([N+](=O)[O-])c1 | 175 to 177
7 | O=C1c2ccc(F)cc2C(=O)c2cc3cc(F)ccc3cc21 | 251 to 253
8 | CCOc1c(C)cnc(CSc2nc3cc4c(cc3[nH]2)OCO4)c1C | 184 to 185
9 | Clc1ccc2nc(-c3ccccc3)cc(Cl)c2c1 | 114 to 116
10 | C=C(c1ccccc1)c1cccc(NS(=O)(=O)C(F)(F)F)c1 | 55 to 59
11 | N#CN=C(NCCSCc1nccs1)NCCSCc1nccs1 | 66 to 68
12 | COc1ccc(C(=O)c2cccc3[nH]ccc23)cc1 | 148 to 152
13 | COc1ccc(-c2ccc(C(N)=O)c(Cl)c2)cc1 | 207 to 208
14 | N#CC1(Nc2ccccc2)CCN([C@@H]2CC[C@H]3CCCc4cccc2c43)CC1 (racemic) | 142
15 | CC(=O)C1=C(O)C(C(=O)C=Cc2ccccc2)C(=O)OC1=O (centres undefined) | 154 to 155
16 | ClCc1coc(-c2cccc(OCc3ccccc3)c2)n1 | 49 to 50
17 | O=C(c1cc(-c2ccc(F)cc2)c(-c2ccc(F)cc2)s1)C(F)(F)F | 120 to 122
18 | CC(N=[N+]=[N-])C(=O)c1nc(C(C)(C)C)c(O)c(C(C)(C)C)n1 (centres undefined) | 91 to 92
19 | O=C(NCc1ccccn1)c1ccc(C(F)(F)F)cc1C(F)(F)F | 112 to 113
20 | CSc1nn(C(=O)Oc2ccccc2)c(=O)n1N | 161
21 | Cn1cc(C(=O)NCCC2CCN(S(=O)(=O)NC(=O)NC34CC5CC(CC(C5)C3)C4)CC2)c(=O)n(C)c1=O | 224 to 226
22 | CC(=O)OC1CSC(Sc2ccc(-c3ccc(C#N)cc3)cc2)C(OC(C)=O)C1OC(C)=O (centres undefined) | 150
23 | COc1cc2cc(C(=O)O)oc(=O)c2cc1OC | 295 to 297
24 | CCCCCCCCN(C=O)C1CC(C)(C)N(C=CC(=O)OCC)C(C)(C)C1 | 58 to 60
25 | CC(=O)n1nc(C)c(Oc2cc(F)cc(C#N)c2)c1C | 109 to 111

Row | Structure (SMILES) | melting point [°C]
26 | CCOc1c(C=C2CCn3c2nc2cc(NC(=O)C(=O)O)ccc2c3=O)cccc1OC | 220 to 222
27 | O=c1c(Cc2ccncc2)c(-c2ccc(Cl)cc2)[nH]c2c(Br)cc(Br)cc12 | 198 to 200
28 | Oc1cccc(NCc2ccccc2)n1 | 158 to 162
29 | Cc1nc(-c2ccc(-c3ccc(C(=O)Nc4cc(OCCN(C)C)c(I)cc4I)cc3)c(C)c2)no1 | 69 to 71
30 | O=c1cc(-c2ccc(O)nc2)oc2ccccc12 | 296 to 297
31 | CNC(=O)CCCCCc1cccc2cncn12 | 118 to 122
32 | Cc1c(F)cccc1NN | 69
33 | CS(=O)(=O)c1ccc(/C(=C\C2CCCCC2)C(=O)O)cc1[N+](=O)[O-] | 244 to 247
34 | CC(=O)Nc1cc2c(cc1C#N)C(Nc1ccc(C(=O)OC(C)(C)C)c(F)c1)CC2 (centres undefined) | 172 to 173
35 | N#Cc1ccc(N2CCC(CCCO)CC2)c2ccccc12 | 114 to 115
36 | COP(=O)(OC)C(O)=Cc1cccc(Cl)c1 | 136 to 138
37 | BrCc1noc2cc3c(cc12)CCC3 | 69 to 71
38 | CC(=O)SCCC1(C)C(=O)N2CCCC(C(=O)O)N2C1=O (centres undefined) | 142 to 143
39 | COc1ccc(-c2ccccc2)c2sc(N)nc12 | 207 to 208
40 | CCOc1c(C#N)cnc2c(NC(=O)c3c(Cl)cccc3Cl)cccc12 | 200 to 201
41 | CCOC(=O)c1ccc(N2CCC(NCC(O)COc3cccc4[nH]c(=O)[nH]c34)CC2)nc1 (centres undefined) | 191 to 193
42 | CCCCCCCCCCCCn1nnc(CCC(=O)Nc2c(C(C)C)cccc2C(C)C)n1 | 41 to 43
43 | O=C(NC1(C(=O)Nc2nncs2)CCCC1)OCc1ccccc1 | 229 to 233
44 | CCN(c1ccc(C(F)(F)F)cc1)C1CCN(c2ccc(OC[C@H]3CCn4cc([N+](=O)[O-])nc4O3)cc2)CC1 | 206
45 | C=CCn1c(C)nc2c3c(ccc21)[C@@H](OCCOC)[C@H](O)[C@@H](c1ccccc1)O3 | 79
46 | Cn1c(=O)[nH]c(=O)c2c1ncn2CC(=O)Nc1ccc(C2CCCC2)cc1 | 295 to 300
47 | COc1cc(OCCOc2ccc3ccccc3c2)cc(OC)c1C(C)=O | 97 to 98
48 | c1cc(CN2CCCCC2)cc(OCCCNc2ccnc3ccccc23)c1 | 127 to 128
49 | CC(C)N(CCSc1ccc(F)cc1)C(=O)Oc1ccccc1 | 53 to 58
50 | FC(F)(F)c1cccc(C=Cc2ccccc2)c1 | 127 to 129

Row | Structure (SMILES) | melting point [°C]
51 | Cc1nccn1-c1nc(-c2ccc(Cl)cc2)c(CCCCOS(C)(=O)=O)o1 | 100 to 101
52 | Clc1ccc(C#Cc2ccc(C#Cc3cc4ccccc4s3)s2)cc1 | 189 to 191
53 | CC#CCOc1cc(Oc2ccc(F)c(F)c2)ncn1 | 110
54 | CC(C)C[C@@H](CO)NC(=O)[C@H](Cc1c[nH]cn1)NC(=O)[C@H](Cc1cccc2ccccc12)NC(=O)OCC1c2ccccc2-c2ccccc21 | 118 to 120
55 | COc1ccc(CNS(=O)(=O)c2ccc(C(CC3CCCC3)C(=O)Nc3nc4ccc(OC)nc4s3)cc2)cc1 (centres undefined) | 170 to 172
56 | N#Cc1nc2c(nc1N)CCCC2 | 200 to 202
57 | CCOC(=O)C(O)=Cc1cc(CCc2ccccc2)cnn1 | 94 to 95
58 | CCCOc1ccccc1-c1nc2nc(NCCC(=O)OCC)ncc2c(=O)[nH]1 | 142 to 143
59 | COc1cccnc1OCC(O)CO (centres undefined) | 62 to 65
60 | CC(C)Oc1ccc(OC(=O)c2ccc(C(=O)Oc3ccc(OC(C)C)cc3)cc2)cc1 | 192 to 194
61 | COc1cc(OC)cc(-c2nc(C)nn2-c2ccc(S(N)(=O)=O)cn2)c1 | 195 to 196
62 | CC1CC(=O)NN=C1c1ccc(N)c(N)c1 (centres undefined) | 195 to 196
63 | CC(C)c1cc(OCCO[Si](C(C)C)(C(C)C)C(C)C)cc2c1C(=O)N(CCl)S2(=O)=O | 85 to 86
64 | ClCCOc1ccc(C2=C(c3ccccc3)CCCc3cc(OC4CCCCO4)ccc32)cc1 (centres undefined) | 153 to 155
65 | O=C(c1cc(I)c[nH]1)C(Cl)(Cl)Cl | 140
66 | CCOC(=O)CCN1CCN(C2=Nc3ccccc3Oc3ccc(Cl)cc32)CC1 | 73 to 75
67 | O=C(O)c1cnn2c(C(F)(F)F)cc(-c3ccc(C(F)(F)F)c(Cl)c3)nc12 | 244
68 | COC(=O)c1ccnc(N2CCN(Cc3ccncc3)C2=O)c1 | 111 to 113
69 | Oc1cc(N=Nc2ccccn2)ccc1-c1ccc(-c2ccc(N=Nc3ccccn3)cc2O)o1 | 164 to 165
70 | O=Cc1ccc(COC(=O)Nc2cccc3ccccc23)cc1 | 153 to 154
71 | CC(C)(C)OC(=O)NC(Cc1ccccc1)C(O)C(N)Cc1ccccc1 (centres undefined) | 134 to 135
72 | O=C(O)c1[nH]cc(OCc2ccccc2)c(=O)c1Br | 120
73 | CCN(CC)CCOc1ccc(NC(=O)C#Cc2ccc(-c3ccccc3)cc2)cc1Cl | 105 to 108
74 | Nc1cc(=O)n(Cc2cccc(F)c2)[nH]1 | 129
75 | CC(C)N(CCN1C(=O)C(=O)c2ccc(Cl)cc21)C(C)C | 78 to 79

Row | Structure (SMILES) | melting point [°C]
76 | FC(F)(F)c1ccc(-n2nc(N3CCN(CC4CC4)CC3)c3ccccc32)cc1 | 98 to 100
77 | CC(=NO)C(C)(C)NCC(Cn1ccnc1[N+](=O)[O-])ONC(C)(C)C(C)=NO (centres undefined) | 170 to 171
78 | O=C(NCCc1ccncc1)c1[nH]c2ccc(Cl)cc2c1S(=O)(=O)c1ccccc1 | 258 to 260
79 | CN(C)CCn1c(=O)c2cccc([N+](=O)[O-])c2c2cnc3cc4c(cc3c21)OCO4 | 96 to 97
80 | O=C1CC(C(F)(F)F)Oc2cc(Cl)c(Cl)cc21 (centres undefined) | 94.5 to 97
81 | CCC1SC(=O)N(Cc2ccc(NC(=O)C(F)(F)F)cc2)N=C1c1ccc(OC)c(OC)c1 (centres undefined) | 124
82 | Cn1cncc1C(O)(c1ccc(F)cc1)c1ccc2c(c1)C(c1cccc(Cl)c1)n1nnnc1N2 (centres undefined) | 180
83 | NC(=O)c1c(Cl)c(-c2ccccc2)n2c1CN(S(=O)(=O)c1ccc([N+](=O)[O-])cc1)CC2 | 203 to 205
84 | CN1CCN(c2ccc([N+](=O)[O-])cn2)CC1 | 75 to 76
85 | CCCc1cc(C(O)(CC)CC)ccc1-c1cc(OCc2ccc(CO)c(CO)c2)ccc1C | 97
86 | Nc1nc(Cl)c2ncn(C3CC(F)C(CO)O3)c2n1 (centres undefined) | 172
87 | Cn1cc(C2=C(c3ccsc3)C(=O)NC2=O)c2ccccc21 | 211 to 212
88 | COc1nc(Cl)cnc1N(C(=O)OCC(C)C)S(=O)(=O)c1ccccc1-c1ccc(OC2CCCCO2)cc1 (centres undefined) | 142 to 143
89 | CC(C)C(NC(=O)Cc1ccc(-c2ccccc2)cc1)C(=O)Nc1n[nH]c(=S)s1 (centres undefined) | 232 to 236
90 | COc1ccc(N(C(=O)CN2C(=O)C(Cc3n[nH]c4c3CCCC4)C(=O)N(c3ccccc3)c3ccccc32)C(C)C)cc1 (centres undefined) | 170 to 173
91 | CCOc1ccc2c(c1)n(C13CC4CC(CC(C4)C1)C3)c(=O)n2S(=O)(=O)c1ccc(NC(=O)N(CC)CC)cc1OC | 221
92 | CC(SCc1cc2cc(C(F)(F)F)ccc2n1S(=O)(=O)c1ccccc1)C(=O)O (centres undefined) | 120
93 | O=Cc1ccc(CN2C(=O)c3ccccc3C2=O)c2ccccc12 | 190 to 192
94 | COC1CC(C(C)CCCC(C)C)C2(C)CCC3C(=C12)CCC1CC(O)CCC13C (centres undefined) | 127 to 128
95 | CCCCOc1nc(-c2ccc(=O)n(C(C)C)n2)c(-c2ccccc2)nc1N | 130 to 132
96 | Cc1sc2c(c1C(=O)CCCl)NC(=O)CCC2 | 86 to 87
97 | CC(C(=O)O)c1ccc(-n2cc(Br)cn2)c(Cl)c1 (centres undefined) | 116 to 117
98 | CS(=O)(=O)Nc1cccc(OCC#N)c1 | 91 to 92
99 | O=C1Nc2cccc(Br)c2C12COc1cc3c(cc12)OCCO3 (centres undefined) | > 250
